In ChEMBL document CHEMBL4765227, “Hit to lead optimization of a series of N-[4-(1,3-benzothiazol-2-yl)phenyl]acetamides as monoacylglycerol lipase inhibitors with potential anticancer activity” (Eur J Med Chem, 2016):

Columns and labels:
Type in all cases: functional
Conditions in all cases: read-out: GI
[1] = tested on: NCI-H522; experiment: Growth inhibition of human NCI-H522 cells at 10 uM incubated for 48 hrs by sulforhodamine B assay relative to control
[2] = tested on: NCI/ADR-RES; experiment: Growth inhibition of human NCI/ADR-RES cells at 10 uM incubated for 48 hrs by sulforhodamine B assay relative to control
[3] = tested on: NCI-H322M; experiment: Growth inhibition of human NCI-H322M cells at 10 uM incubated for 48 hrs by sulforhodamine B assay relative to control
[4] = tested on: MOLT-4; experiment: Growth inhibition of human MOLT-4 cells at 10 uM incubated for 48 hrs by sulforhodamine B assay relative to control
[5] = tested on: Hs-578T; experiment: Growth inhibition of human Hs-578T cells at 10 uM incubated for 48 hrs by sulforhodamine B assay relative to control
[6] = tested on: CAKI-1; experiment: Growth inhibition of human CAKI-1 cells at 10 uM incubated for 48 hrs by sulforhodamine B assay relative to control
[7] = tested on: Malme-3M; experiment: Growth inhibition of human Malme-3M cells at 10 uM incubated for 48 hrs by sulforhodamine B assay relative to control
[8] = tested on: SNB-75; experiment: Growth inhibition of human SNB-75 cells at 10 uM incubated for 48 hrs by sulforhodamine B assay relative to control
[9] = tested on: SF-539; experiment: Growth inhibition of human SF-539 cells at 10 uM incubated for 48 hrs by sulforhodamine B assay relative to control
[10] = tested on: SR; experiment: Growth inhibition of human SR cells at 10 uM incubated for 48 hrs by sulforhodamine B assay relative to control
[11] = tested on: PC-3; experiment: Growth inhibition of human PC-3 cells at 10 uM incubated for 48 hrs by sulforhodamine B assay relative to control
[12] = tested on: SF-295; experiment: Growth inhibition of human SF-295 cells at 10 uM incubated for 48 hrs by sulforhodamine B assay relative to control
[13] = tested on: A549; experiment: Growth inhibition of human A549/ATCC cells at 10 uM incubated for 48 hrs by sulforhodamine B assay relative to control
[14] = tested on: LOX IMVI; experiment: Growth inhibition of human LOX IMVI cells at 10 uM incubated for 48 hrs by sulforhodamine B assay relative to control
[15] = tested on: HOP-62; experiment: Growth inhibition of human HOP-62 cells at 10 uM incubated for 48 hrs by sulforhodamine B assay relative to control
[16] = tested on: U-251; experiment: Growth inhibition of human U-251 cells at 10 uM incubated for 48 hrs by sulforhodamine B assay relative to control
[17] = tested on: OVCAR-8; experiment: Growth inhibition of human OVCAR-8 cells at 10 uM incubated for 48 hrs by sulforhodamine B assay relative to control
[18] = tested on: HOP-92; experiment: Growth inhibition of human HOP-92 cells at 10 uM incubated for 48 hrs by sulforhodamine B assay relative to control
[19] = tested on: RPMI-8226; experiment: Growth inhibition of human RPMI-8226 cells at 10 uM incubated for 48 hrs by sulforhodamine B assay relative to control
[20] = tested on: OVCAR-4; experiment: Growth inhibition of human OVCAR-4 cells at 10 uM incubated for 48 hrs by sulforhodamine B assay relative to control
[21] = tested on: SF-268; experiment: Growth inhibition of human SF-268 cells at 10 uM incubated for 48 hrs by sulforhodamine B assay relative to control
[22] = tested on: NCI-H226; experiment: Growth inhibition of human NCI-H226 cells at 10 uM incubated for 48 hrs by sulforhodamine B assay relative to control
[23] = tested on: KM12; experiment: Growth inhibition of human KM12 cells at 10 uM incubated for 48 hrs by sulforhodamine B assay relative to control
[24] = tested on: UO-31; experiment: Growth inhibition of human UO-31 cells at 10 uM incubated for 48 hrs by sulforhodamine B assay relative to control
[25] = tested on: UACC-257; experiment: Growth inhibition of human UACC-257 cells at 10 uM incubated for 48 hrs by sulforhodamine B assay relative to control
[26] = tested on: HCT-116; experiment: Growth inhibition of human HCT-116 cells at 10 uM incubated for 48 hrs by sulforhodamine B assay relative to control
[27] = tested on: SN12C; experiment: Growth inhibition of human SN12C cells at 10 uM incubated for 48 hrs by sulforhodamine B assay relative to control
[28] = tested on: OVCAR-5; experiment: Growth inhibition of human OVCAR-5 cells at 10 uM incubated for 48 hrs by sulforhodamine B assay relative to control
[29] = tested on: HCT-15; experiment: Growth inhibition of human HCT-15 cells at 10 uM incubated for 48 hrs by sulforhodamine B assay relative to control
[30] = tested on: MDA-MB-468; experiment: Growth inhibition of human MDA-MB-468 cells at 10 uM incubated for 48 hrs by sulforhodamine B assay relative to control
[31] = tested on: 786-0; experiment: Growth inhibition of human 786-0 cells at 10 uM incubated for 48 hrs by sulforhodamine B assay relative to control
[32] = tested on: ACHN; experiment: Growth inhibition of human ACHN cells at 10 uM incubated for 48 hrs by sulforhodamine B assay relative to control
[33] = tested on: RXF 393; experiment: Growth inhibition of human RXF 393 cells at 10 uM incubated for 48 hrs by sulforhodamine B assay relative to control
[34] = tested on: DU-145; experiment: Growth inhibition of human DU-145 cells at 10 uM incubated for 48 hrs by sulforhodamine B assay relative to control
[35] = tested on: SW-620; experiment: Growth inhibition of human SW-620 cells at 10 uM incubated for 48 hrs by sulforhodamine B assay relative to control
[36] = tested on: M14; experiment: Growth inhibition of human M14 cells at 10 uM incubated for 48 hrs by sulforhodamine B assay relative to control
[37] = tested on: COLO 205; experiment: Growth inhibition of human COLO 205 cells at 10 uM incubated for 48 hrs by sulforhodamine B assay relative to control
[38] = tested on: HL-60(TB); experiment: Growth inhibition of human HL-60(TB) cells at 10 uM incubated for 48 hrs by sulforhodamine B assay relative to control
[39] = tested on: MCF7; experiment: Growth inhibition of human MCF7 cells at 10 uM incubated for 48 hrs by sulforhodamine B assay relative to control
[40] = tested on: OVCAR-3; experiment: Growth inhibition of human OVCAR-3 cells at 10 uM incubated for 48 hrs by sulforhodamine B assay relative to control
[41] = tested on: NCI-H23; experiment: Growth inhibition of human NCI-H23 cells at 10 uM incubated for 48 hrs by sulforhodamine B assay relative to control
[42] = tested on: HT-29; experiment: Growth inhibition of human HT-29 cells at 10 uM incubated for 48 hrs by sulforhodamine B assay relative to control
[43] = tested on: MDA-MB-231; experiment: Growth inhibition of human MDA-MB-231 cells at 10 uM incubated for 48 hrs by sulforhodamine B assay relative to control
[44] = tested on: HCC 2998; experiment: Growth inhibition of human HCC 2998 cells at 10 uM incubated for 48 hrs by sulforhodamine B assay relative to control

O=C(CN1C(=O)C(=O)c2ccccc21)Nc1ccc(-c2nc3ccccc3s2)cc1
inhibition of growth at 10 µM [1]: 4.88%
inhibition of growth at 10 µM [2]: -2.79%
inhibition of growth at 10 µM [3]: -0.03%
inhibition of growth at 10 µM [4]: 47.5%
inhibition of growth at 10 µM [5]: -14.2%
inhibition of growth at 10 µM [6]: -1.81%
inhibition of growth at 10 µM [7]: -2.34%
inhibition of growth at 10 µM [8]: 9.83%
inhibition of growth at 10 µM [9]: -0.12%
inhibition of growth at 10 µM [10]: 15.2%
inhibition of growth at 10 µM [11]: 28.6%
inhibition of growth at 10 µM [12]: 0.13%
inhibition of growth at 10 µM [13]: 2.72%
inhibition of growth at 10 µM [14]: -0.17%
inhibition of growth at 10 µM [15]: -12.7%
inhibition of growth at 10 µM [16]: 8.34%
inhibition of growth at 10 µM [17]: 4.11%
inhibition of growth at 10 µM [18]: 32.6%
inhibition of growth at 10 µM [19]: 15%
inhibition of growth at 10 µM [20]: 4.68%
inhibition of growth at 10 µM [21]: 10.9%
inhibition of growth at 10 µM [22]: 9.37%
inhibition of growth at 10 µM [23]: 0.88%
inhibition of growth at 10 µM [24]: 15.5%
inhibition of growth at 10 µM [25]: -12.4%
inhibition of growth at 10 µM [26]: 9.11%
inhibition of growth at 10 µM [27]: 4.5%
inhibition of growth at 10 µM [28]: -12.7%
inhibition of growth at 10 µM [29]: 2.95%
inhibition of growth at 10 µM [30]: 72.6%
inhibition of growth at 10 µM [31]: -6.97%
inhibition of growth at 10 µM [32]: -0.81%
inhibition of growth at 10 µM [33]: 4.81%
inhibition of growth at 10 µM [34]: 2.58%
inhibition of growth at 10 µM [35]: -0.74%
inhibition of growth at 10 µM [36]: -6.04%
inhibition of growth at 10 µM [37]: 0.13%
inhibition of growth at 10 µM [38]: 5.84%
inhibition of growth at 10 µM [39]: 44.5%
inhibition of growth at 10 µM [40]: 10.9%
inhibition of growth at 10 µM [41]: 4.61%
inhibition of growth at 10 µM [42]: -6.9%
inhibition of growth at 10 µM [43]: 6.18%
inhibition of growth at 10 µM [44]: -1.9%

O=C(CN(c1ccccc1)c1ccccc1)Nc1ccc(-c2nc3ccccc3s2)cc1
inhibition of growth at 10 µM [1]: 2.41%
inhibition of growth at 10 µM [2]: -9.25%
inhibition of growth at 10 µM [3]: -4.73%
inhibition of growth at 10 µM [4]: -4.25%
inhibition of growth at 10 µM [5]: 14.3%
inhibition of growth at 10 µM [6]: 0.37%
inhibition of growth at 10 µM [7]: -3.98%
inhibition of growth at 10 µM [8]: 2.08%
inhibition of growth at 10 µM [9]: 4.21%
inhibition of growth at 10 µM [10]: 2.68%
inhibition of growth at 10 µM [11]: 2.35%
inhibition of growth at 10 µM [12]: -3.15%
inhibition of growth at 10 µM [13]: -5.7%
inhibition of growth at 10 µM [14]: 6.1%
inhibition of growth at 10 µM [15]: -5.28%
inhibition of growth at 10 µM [16]: -5.92%
inhibition of growth at 10 µM [17]: -0.82%
inhibition of growth at 10 µM [18]: 11.2%
inhibition of growth at 10 µM [19]: -15.6%
inhibition of growth at 10 µM [20]: -13.3%
inhibition of growth at 10 µM [21]: -3.74%
inhibition of growth at 10 µM [22]: -5.48%
inhibition of growth at 10 µM [23]: -6.94%
inhibition of growth at 10 µM [24]: 3.62%
inhibition of growth at 10 µM [25]: -8.16%
inhibition of growth at 10 µM [26]: -5.38%
inhibition of growth at 10 µM [27]: -3.04%
inhibition of growth at 10 µM [28]: -6.47%
inhibition of growth at 10 µM [29]: -8.11%
inhibition of growth at 10 µM [30]: 61.3%
inhibition of growth at 10 µM [31]: -1.87%
inhibition of growth at 10 µM [32]: -13.4%
inhibition of growth at 10 µM [33]: -5.12%
inhibition of growth at 10 µM [34]: -5.31%
inhibition of growth at 10 µM [35]: -3.33%
inhibition of growth at 10 µM [36]: -10.1%
inhibition of growth at 10 µM [37]: -3.6%
inhibition of growth at 10 µM [38]: -1.45%
inhibition of growth at 10 µM [39]: 52%
inhibition of growth at 10 µM [40]: -4.14%
inhibition of growth at 10 µM [41]: 3.7%
inhibition of growth at 10 µM [42]: -5.89%
inhibition of growth at 10 µM [43]: -3.01%
inhibition of growth at 10 µM [44]: -1.62%
